Data on one substance can be found in PMC8248988, “A signal capture and proofreading mechanism for the KDEL-receptor explains selectivity and dynamic range in ER retrieval” (eLife, 2021).

For this experiment, the target named is T1, human KDELR1 N54R (Homo sapiens, UniProt P24390, N54R).
T1 construct: expressed in transfected cells; host or cells: COS-7
Kind of experiment: ER retrieval assay, KDELR1 N54R-GFP. The format is cell-based. The settings on record: COS-7 cells. The text has this:
To create KDELR1-GFP and KDELR2-GFP, the reading frames for Homo sapiens KDELR1 (Uniprot: P24390) and KDELR2 (Uniprot: P33947) were cloned into the pEF5/FRT low level mammalian expression vector with a C-terminal 20 amino acid linker made up of 5 copies of Gly-Ser-Ser-Ser followed by GFP. Specific point mutations were introduced using the Quickchange protocol (Stratagene) and are described in the key resources table and figures. To create the mScarlet-KDEL^sec ligand construct, mScarlet with an N-terminal hGH signal peptide and the 16 C-terminal residues of human BiP at its C-terminus, containing the KDEL signal, was cloned into the pcDNA3.1 vector. […] The Golgi marker protein TGN46 was detected by antibody (sheep anti-TGN46 AHP500G; AbD Serotec) and an Alexa 647 conjugated secondary anti-sheep secondary (A-21448, Invitrogen). In Figure 1d and e, endogenous KDELR was detected by antibody (mouse anti-KDELR ADI-VAA-PT048; Enzo Life Sciences) and Alexa 488 conjugated anti-mouse secondary antibody (A-21202, Invitrogen). For retrieval assays in other figures, KDELR-GFP fusion proteins were directly detected by fluorescence. The mScarlet-xDEL fusion proteins were directly detected by fluorescence. […] The fraction of KDEL receptor in the Golgi apparatus was calculated by dividing the Golgi signal by the total cell signal. […]

T1 sequence (P24390 whole entry N54R): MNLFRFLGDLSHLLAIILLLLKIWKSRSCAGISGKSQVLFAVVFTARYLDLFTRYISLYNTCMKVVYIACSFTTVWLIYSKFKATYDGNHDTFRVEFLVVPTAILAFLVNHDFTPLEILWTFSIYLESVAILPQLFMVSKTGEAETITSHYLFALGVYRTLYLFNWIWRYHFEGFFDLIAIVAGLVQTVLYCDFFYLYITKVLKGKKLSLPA

On to “ADEL [pcDNA3.1 hGHss-mScarlet-H. sapiens BiP639-654K651A (ADEL^SEC), secreted mScarlet fusion with human BiP C-terminus, ADEL signal]”, for which the “ligand-induced receptor retrieval to the ER (in words)” value was “did not result in ADEL or DDEL recognition”.
